{
  "source": "paper PMC6000670",
  "about": "“Dihydropyridines Allosterically Modulate Hsp90 Providing a Novel Mechanism for Heat Shock Protein Co-induction and Neuroprotection” (Frontiers in Molecular Biosciences, 2018)",
  "key": {"[1]": {"molecular_target": "T1, yeast Hsp90 (Saccharomyces cerevisiae, UniProt P02829)", "T1 sequence (P02829 whole entry)": "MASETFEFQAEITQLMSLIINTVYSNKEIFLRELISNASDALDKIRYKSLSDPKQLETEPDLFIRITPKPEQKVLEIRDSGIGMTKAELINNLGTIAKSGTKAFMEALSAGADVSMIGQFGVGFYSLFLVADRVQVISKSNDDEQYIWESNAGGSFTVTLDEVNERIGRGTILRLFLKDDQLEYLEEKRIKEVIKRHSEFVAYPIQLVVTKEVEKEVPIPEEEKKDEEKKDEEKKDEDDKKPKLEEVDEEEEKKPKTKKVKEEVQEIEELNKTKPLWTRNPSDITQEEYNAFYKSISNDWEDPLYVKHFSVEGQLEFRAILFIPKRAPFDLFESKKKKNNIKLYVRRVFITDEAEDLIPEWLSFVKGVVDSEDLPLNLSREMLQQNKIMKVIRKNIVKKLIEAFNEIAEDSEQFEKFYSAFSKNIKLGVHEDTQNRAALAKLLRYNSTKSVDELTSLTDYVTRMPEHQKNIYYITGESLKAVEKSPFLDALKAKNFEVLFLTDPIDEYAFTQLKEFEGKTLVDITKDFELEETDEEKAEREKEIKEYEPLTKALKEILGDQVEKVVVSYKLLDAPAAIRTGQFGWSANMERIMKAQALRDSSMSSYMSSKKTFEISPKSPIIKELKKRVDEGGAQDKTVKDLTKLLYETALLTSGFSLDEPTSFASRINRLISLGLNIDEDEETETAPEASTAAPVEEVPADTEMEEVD", "assay": "Hsp90 ATPase assay"}, "[2]": {"molecular_target": "yeast Hsp90^273−709 (Saccharomyces cerevisiae, UniProt P02829)", "sequence (P02829 273-709)": "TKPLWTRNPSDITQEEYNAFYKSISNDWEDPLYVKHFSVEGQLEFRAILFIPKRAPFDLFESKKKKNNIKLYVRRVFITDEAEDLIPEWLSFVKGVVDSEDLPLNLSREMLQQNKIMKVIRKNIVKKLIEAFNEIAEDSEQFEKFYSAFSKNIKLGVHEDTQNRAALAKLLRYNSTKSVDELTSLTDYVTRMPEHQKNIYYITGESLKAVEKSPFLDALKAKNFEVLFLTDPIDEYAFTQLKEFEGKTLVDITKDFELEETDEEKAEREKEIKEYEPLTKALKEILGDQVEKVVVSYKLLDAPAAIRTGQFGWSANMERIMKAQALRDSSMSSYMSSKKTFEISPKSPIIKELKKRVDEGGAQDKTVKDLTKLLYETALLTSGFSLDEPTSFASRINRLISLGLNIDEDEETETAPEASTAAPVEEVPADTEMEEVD", "assay": "ITC binding to yeast Hsp90 273-709 (middle and C-terminal domain)", "conditions": "for ΔH / ΔS: ITC, Yeast 273–709"}, "[3]": {"molecular_target": "T2, yeast Hsp90 N-terminal domain (Hsp90^1−220) (Saccharomyces cerevisiae, UniProt P02829)", "T2 construct": "Hsp90^1−220 (N-terminal domain); made in house", "T2 sequence (P02829 1-220)": "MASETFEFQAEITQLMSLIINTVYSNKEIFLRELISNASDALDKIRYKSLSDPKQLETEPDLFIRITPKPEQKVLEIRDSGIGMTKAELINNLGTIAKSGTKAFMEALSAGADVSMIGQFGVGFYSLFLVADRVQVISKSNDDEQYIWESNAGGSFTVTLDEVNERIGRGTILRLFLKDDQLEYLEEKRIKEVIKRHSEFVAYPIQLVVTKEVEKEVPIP", "assay": "ITC binding to yeast Hsp90 N-terminal domain", "conditions": "isolated N-terminal domain of yeast Hsp90"}, "[4]": {"system": "Hsp90", "assay": "Refolding of denatured luciferase in rabbit reticulocyte lysate", "assay_type": "biochemical", "description": "QuantiLum Luciferase (Promega E170A) was diluted to 100 ug/mL in 25 mM Tricine pH 7.8, containing 10 mM MgCl2, 1 mM DTT, 0.1 mM EDTA, 10% glycerol, and 100 mg/mL BSA (sigma 05470) and denatured at 44°C for 30 min. […] Refolding of luciferase was determined by removing 2 μL aliquots of the rabbit reticulocyte mix at 0, 15, 30 45, 60, 90, and 120 min and adding this to 48 μL of Briglt-Glo^TM reconstituted reagent (Promega, E2610), which contains buffer, substrate and ATP required for luciferase activity, as instructed by the manufacturer. Luminescence was measured in a CLARIOstar^R microplate reader using half area 96 well flat bottom plates."}, "[5]": {"system": "APPxPS1 transgenic mouse model of AD", "parameters": "method as in Kasza et al., 2016", "conditions": "ref Kasza et al., 2016, cited from earlier work"}, "[6]": {"system": "SH-SY5Y human neuroblastoma cell line", "parameters": "method as in Kasza et al., 2016", "conditions": "ref Kasza et al., 2016; cited from earlier work"}, "[7]": {"molecular_target": "human Hsp72 (Homo sapiens, UniProt P0DMV8)", "assay": "ITC binding to human Hsp72", "conditions": "1 mM LA1011 into 60 μM human Hsp72"}, "[8]": {"molecular_target": "T1, yeast Hsp90", "assay": "Citrate synthase aggregation assay"}, "[9]": {"molecular_target": "T1, yeast Hsp90", "assay": "ITC binding to yeast full-length Hsp90"}, "[10]": {"molecular_target": "yeast Hsp90-ADP complex (Saccharomyces cerevisiae, UniProt P02829)", "sequence (P02829 whole entry, one chain of several)": "as the sequence (P02829 whole entry) above", "assay": "ITC binding to yeast Hsp90-ADP complex"}, "[11]": {"molecular_target": "human Hsp90α (Homo sapiens, UniProt P07900)", "assay": "ITC binding to human full-length Hsp90α"}, "[12]": {"molecular_target": "human Hsp90β (Homo sapiens, UniProt P08238)", "sequence (P08238 whole entry)": "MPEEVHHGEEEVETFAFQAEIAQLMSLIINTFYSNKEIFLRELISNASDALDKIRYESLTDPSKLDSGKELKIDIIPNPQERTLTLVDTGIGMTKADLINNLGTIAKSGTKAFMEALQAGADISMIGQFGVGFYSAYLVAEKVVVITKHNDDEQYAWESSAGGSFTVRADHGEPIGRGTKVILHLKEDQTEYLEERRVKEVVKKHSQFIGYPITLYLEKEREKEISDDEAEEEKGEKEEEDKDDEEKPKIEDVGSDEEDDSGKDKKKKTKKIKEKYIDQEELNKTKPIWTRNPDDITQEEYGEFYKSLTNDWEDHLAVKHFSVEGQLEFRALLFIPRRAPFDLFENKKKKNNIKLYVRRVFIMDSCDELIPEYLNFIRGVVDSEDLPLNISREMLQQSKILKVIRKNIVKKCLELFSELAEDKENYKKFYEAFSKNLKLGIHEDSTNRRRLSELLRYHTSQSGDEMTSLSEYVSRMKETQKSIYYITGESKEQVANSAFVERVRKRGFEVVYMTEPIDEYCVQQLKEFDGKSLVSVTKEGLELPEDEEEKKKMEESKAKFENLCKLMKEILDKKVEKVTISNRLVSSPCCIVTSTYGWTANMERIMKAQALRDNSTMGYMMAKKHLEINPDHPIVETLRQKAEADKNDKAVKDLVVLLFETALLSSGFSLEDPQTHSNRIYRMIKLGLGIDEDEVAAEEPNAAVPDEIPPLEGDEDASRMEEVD", "assay": "ITC binding to human full-length Hsp90β"}, "[13]": {"molecular_target": "yeast Hsp90-P661R (Saccharomyces cerevisiae, UniProt P02829, P661R)", "sequence (P02829 whole entry, looked up, stated change not applied)": "as the sequence (P02829 whole entry) above", "assay": "ITC binding to yeast Hsp90 mutant P661R"}, "[14]": {"molecular_target": "Hsp90-AMPPNP-Sba1 complex (Saccharomyces cerevisiae, UniProt P02829)", "assay": "ITC binding to Hsp90-AMPPNP-Sba1 complex"}, "[15]": {"molecular_target": "yeast Hsp90–AMPPNP complex (Saccharomyces cerevisiae, UniProt P02829)", "sequence (P02829 whole entry, one chain of several)": "as the sequence (P02829 whole entry) above", "assay": "ITC binding to yeast Hsp90-AMPPNP complex"}, "[16]": {"molecular_target": "human Hsp90α N-terminal domain (Hsp90^9−236) (Homo sapiens, UniProt P07900)", "assay": "ITC binding to human Hsp90α N-terminal domain", "conditions": "isolated N-terminal domain of human Hsp90α"}, "[17]": {"molecular_target": "yeast Hsp90^546−709 (Saccharomyces cerevisiae, UniProt P02829)", "sequence (P02829 546-709)": "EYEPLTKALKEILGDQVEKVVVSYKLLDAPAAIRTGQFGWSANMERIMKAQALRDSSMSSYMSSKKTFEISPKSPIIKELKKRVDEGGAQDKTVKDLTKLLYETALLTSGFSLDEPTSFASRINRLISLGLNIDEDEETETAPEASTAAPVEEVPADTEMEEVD", "assay": "ITC binding to yeast Hsp90 546-709 (C-terminal domain)"}, "[18]": {"molecular_target": "Hsp90^1−560 (Saccharomyces cerevisiae, UniProt P02829)", "sequence (P02829 1-560)": "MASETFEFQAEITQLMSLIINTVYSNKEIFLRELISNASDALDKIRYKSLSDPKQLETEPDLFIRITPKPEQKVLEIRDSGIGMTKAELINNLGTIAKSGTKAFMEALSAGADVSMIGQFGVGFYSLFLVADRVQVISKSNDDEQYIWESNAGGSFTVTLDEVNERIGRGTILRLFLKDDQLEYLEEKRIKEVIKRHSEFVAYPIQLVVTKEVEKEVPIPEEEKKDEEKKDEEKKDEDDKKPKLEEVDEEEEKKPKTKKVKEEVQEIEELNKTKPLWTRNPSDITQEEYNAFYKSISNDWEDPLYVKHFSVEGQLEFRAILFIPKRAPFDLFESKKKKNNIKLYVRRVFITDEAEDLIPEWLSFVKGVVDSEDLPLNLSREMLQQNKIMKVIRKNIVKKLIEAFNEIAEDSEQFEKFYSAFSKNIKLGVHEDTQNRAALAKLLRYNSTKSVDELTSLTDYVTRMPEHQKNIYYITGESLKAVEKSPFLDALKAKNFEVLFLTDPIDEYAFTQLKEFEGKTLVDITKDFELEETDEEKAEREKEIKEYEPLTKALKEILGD", "assay": "ITC binding to yeast Hsp90 1-560 (N and middle domain)", "conditions": "Hsp90 1−560, N- and middle-domain of yeast Hsp90"}, "[19]": {"molecular_target": "T1, yeast Hsp90", "parameters": "pRSETA was used to express yeast full–length Hsp90; made in house; method as in Prodromou et al., 1999", "conditions": "Sti1 to yeast Hsp90 without LA1011; ref Prodromou et al., 1999; cited from earlier work"}, "[20]": {"conditions": "2 μM yeast Hsp90, non-inhibited turnover 1.2 per min"}},
  "note": "Read-outs that look alike come from different tables or passages of the source.",
  "data": [
    {"compound": "COC(=O)C1=C(C)N(C)C(CCN2CCOCC2)=C(C(=O)OC)C1c1ccc(C(F)(F)F)cc1", "note": "(stereo not drawn) [LA1014]", "values": [
      {"measurement": "effect on ATPase activity of Hsp90", "setting": "[1]; [20]", "value": "activated the ATPase activity"},
      {"measurement": "Kd", "setting": "[2]", "value": "20.2 ± 3", "unit": "µM"},
      {"measurement": "ΔH", "setting": "[2]", "value": "-871.4 ± 145", "unit": "cal/mol"},
      {"measurement": "ΔS", "setting": "[2]", "value": 18.6, "unit": "cal/mol/Deg"}
    ]},
    {"compound": "COC(=O)C1=C(CCN(C)C)N(C)C(CCN(C)C)=C(C(=O)OC)C1c1ccc(C(F)(F)F)cc1", "note": "[LA1011]", "values": [
      {"measurement": "binding", "setting": "[3]", "value": "failed to bind"},
      {"measurement": "inhibition of luciferase refolding", "setting": "[4]; 1 mM LA1011, rabbit reticulocyte lysate", "value": "around 50%"},
      {"measurement": "refolding of luciferase", "setting": "[4]; 5 mM LA1011, rabbit reticulocyte lysate", "value": "completely prevented refolding of luciferase"},
      {"measurement": "neuroprotective effect", "setting": "[5]; APPxPS1 transgenic mouse model of AD", "value": "could protect neurons in the hippocampus, could decrease Tau-accumulation and was able to preserve dendritic spines"},
      {"measurement": "levels that had an effect in mouse models", "setting": "[5]; mouse models", "value": "5 to 10", "unit": "µM"},
      {"measurement": "heat shock protein co-induction", "setting": "[6]", "value": "co-inducers of Hsp70 and Hsp27"},
      {"measurement": "effect on ATPase activity of Hsp90", "setting": "[1]; [20]", "value": "activated the ATPase activity"},
      {"measurement": "effect on ATPase activity of Hsp90", "setting": "[1]; 10 μM LA1011", "value": "marginal effects"},
      {"measurement": "stimulation of the ATPase", "setting": "[1]; 240 μM LA1011", "value": 2, "unit": "fold"},
      {"measurement": "binding", "setting": "[7]", "value": "did not interact"},
      {"measurement": "disruption of Hsp90's ability to protect citrate synthase from aggregation", "setting": "[8]; 0.1–0.2 mM LA1011, 600 nM Hsp90, 45°C", "value": "around 50%"},
      {"measurement": "fractional occupancy", "setting": "[8]; calculated as [ligand]/[ligand]+Kd, Kd 13 μM, at 0.1–0.2 mM LA1011", "value": "88–93%"},
      {"measurement": "Kd", "setting": "[9]", "value": "13.5 ± 0.9", "unit": "µM"},
      {"measurement": "N (stoichiometry)", "setting": "[9]; ITC, Yeast Hsp90", "value": 0.53},
      {"measurement": "ΔH", "setting": "[9]; ITC, Yeast Hsp90", "value": "-4863 ± 194", "unit": "cal/mol"},
      {"measurement": "ΔS", "setting": "[9]; ITC, Yeast Hsp90", "value": 6.24, "unit": "cal/mol/Deg"},
      {"measurement": "LA1011 required to achieve 88% occupancy", "setting": "[9]; in the absence of ATP", "value": 100, "unit": "µM"},
      {"measurement": "Kd", "setting": "[10]", "value": "66.2 ± 29.7", "unit": "µM"},
      {"measurement": "Kd", "setting": "[11]", "value": "3.8 ± 0.7", "unit": "µM"},
      {"measurement": "ΔH", "setting": "[11]; ITC, Hsp90α", "value": "-792 ± 80.7", "unit": "cal/mol"},
      {"measurement": "ΔS", "setting": "[11]; ITC, Hsp90α", "value": 22.2, "unit": "cal/mol/Deg"},
      {"measurement": "N (stoichiometry)", "setting": "[11]; ITC, human Hsp90α", "value": 0.35},
      {"measurement": "Kd", "setting": "[12]", "value": "9.7 ± 0.7", "unit": "µM"},
      {"measurement": "ΔH", "setting": "[12]; ITC, Hsp90β", "value": "-654.9 ± 43.5", "unit": "cal/mol"},
      {"measurement": "ΔS", "setting": "[12]; ITC, Hsp90β", "value": 20.8, "unit": "cal/mol/Deg"},
      {"measurement": "N (stoichiometry)", "setting": "[12]; ITC, human Hsp90β", "value": 0.27},
      {"measurement": "Kd", "setting": "[13]", "value": "80.6 ± 19", "unit": "µM"},
      {"measurement": "Kd", "setting": "[14]", "value": "23.1 ± 1.9", "unit": "µM"},
      {"measurement": "Kd", "setting": "[15]", "value": "66.2 ± 21.4", "unit": "µM"},
      {"measurement": "LA1011 required to achieve 88% occupancy", "setting": "[15]; in the presence of ATP", "value": 0.5, "unit": "mM"},
      {"measurement": "binding", "setting": "[16]", "value": "failed to bind"},
      {"measurement": "Kd", "setting": "[17]", "value": "60.6 ± 7.9", "unit": "µM"},
      {"measurement": "ΔH", "setting": "[17]; ITC, Yeast 546–709", "value": "-2603 ± 706", "unit": "cal/mol"},
      {"measurement": "ΔS", "setting": "[17]; ITC, Yeast 546–709", "value": 10.7, "unit": "cal/mol/Deg"},
      {"measurement": "binding", "setting": "[18]", "value": "failed to bind"},
      {"measurement": "Kd", "setting": "[2]", "value": "9.7 ± 0.7", "unit": "µM"},
      {"measurement": "ΔH", "setting": "[2]", "value": "-5110 ± 187", "unit": "cal/mol"},
      {"measurement": "ΔS", "setting": "[2]", "value": 6.07, "unit": "cal/mol/Deg"}
    ]},
    {"compound": "COC1=C2C[C@@H](C)C[C@H](OC)[C@H](O)[C@@H](C)/C=C(\\C)[C@H](OC(N)=O)[C@@H](OC)/C=C\\C=C(/C)C(=O)NC(=CC1=O)C2=O", "note": "[geldanamycin, reference compound]", "values": [
      {"measurement": "effect on ATPase activity of Hsp90", "setting": "[1]; [20]", "value": "inhibition of Hsp90 ATPase activity"}
    ]},
    {"compound": "Sti1: yeast co-chaperone of Hsp90", "values": [
      {"measurement": "Kd", "setting": "[19]", "value": "330 ± 30", "unit": "nM"}
    ]},
    {"compound": "COC(=O)C1=C(CCN(C)C)N(C)C(CCN(C)C)=C(C(=O)OC)C1c1cc(F)cc(F)c1", "note": "[LA1026]", "values": [
      {"measurement": "effect on ATPase activity of Hsp90", "setting": "[1]; [20]", "value": "activated the ATPase activity"},
      {"measurement": "Kd", "setting": "[2]", "value": "48.8 ± 4.7", "unit": "µM"},
      {"measurement": "ΔH", "setting": "[2]", "value": "-1233 ± 210", "unit": "cal/mol"},
      {"measurement": "ΔS", "setting": "[2]", "value": 15.7, "unit": "cal/mol/Deg"}
    ]}
  ]
}
